# Reference: patent US9914730B2, “Azaquinazoline inhibitors of Atypical protein Kinase C” (Ignyta, Inc., priority 2012, dated 2018)
# Biological target: T1, full-length human PKCι (Homo sapiens, UniProt P41743)
# T1 construct: Recombinant, full-length human PKCι expressed in Sf21 insect cells is also commercially available; purchased; host or cells: Sf21 insect cells
# T1 sequence (P41743 1-596): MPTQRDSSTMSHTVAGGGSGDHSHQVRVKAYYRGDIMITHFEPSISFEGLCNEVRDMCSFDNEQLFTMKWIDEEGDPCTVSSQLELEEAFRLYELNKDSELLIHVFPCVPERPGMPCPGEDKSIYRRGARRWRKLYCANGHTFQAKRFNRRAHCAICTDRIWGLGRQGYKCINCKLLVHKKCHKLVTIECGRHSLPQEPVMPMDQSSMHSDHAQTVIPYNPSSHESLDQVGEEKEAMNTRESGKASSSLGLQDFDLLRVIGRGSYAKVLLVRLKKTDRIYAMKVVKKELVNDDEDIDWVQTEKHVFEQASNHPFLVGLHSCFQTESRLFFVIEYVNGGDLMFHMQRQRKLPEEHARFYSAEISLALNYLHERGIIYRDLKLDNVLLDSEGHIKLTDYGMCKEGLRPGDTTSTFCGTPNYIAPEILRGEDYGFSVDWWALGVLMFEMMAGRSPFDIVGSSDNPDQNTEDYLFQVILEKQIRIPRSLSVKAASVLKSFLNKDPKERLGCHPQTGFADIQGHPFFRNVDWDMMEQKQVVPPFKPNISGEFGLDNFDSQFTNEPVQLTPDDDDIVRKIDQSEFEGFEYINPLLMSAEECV
# Experiment: PKCι IC50 IMAP assay, full-length PKCι at 150 μM ATP
# Format: biochemical
# Conditions: read-out: IC50 in IMAP assay against full length PKCi at 150 μM ATP
# Summary of the method: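 IC50 from IMAP FP (ex 485/em 530 nm) after 60 min room-temperature reaction in pH 7.5 tris buffer with 9 mM MgCl2 and 0.9 mM DTT. Enzyme: full-length Sf21-expressed PKCι (~15 pM); ATP 150 μM, five times KM^APP; FAM-labelled peptide 100 nM; DMSO 4%.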
row,SMILES,IC50
1,"Fc1cc(F)c(F)c(Nc2cc(-c3nc(N4CCNCC4)c4c(C5CC5)cncc4n3)ccn2)n1 [Example 774, [4-(5-Cyclopropyl-4-piperazin-1-yl-pyrido[3,4-d]pyrimidin-2-yl)-pyridin-2-yl]-(3,4,6-trifluoro-pyridin-2-yl)-amine]",< 100 nM
2,"CNCCNc1nc(-c2ccnc(Nc3c(F)cccc3F)c2)nc2cncc(C3CC3)c12 [Example 775, N-{5-Cyclopropyl-2-[2-(2,6-difluoro-phenylamino)-pyridin-4-yl]-pyrido[3,4-d]pyrimidin-4-yl}-N′-methyl-ethane-1,2-diamine]",< 100 nM
3,"CN(C)CCNc1nc(-c2ccnc(Nc3c(F)cccc3F)c2)nc2cncc(C3CC3)c12 [Example 776, N-{5-Cyclopropyl-2-[2-(2,6-difluoro-phenylamino)-pyridin-4-yl]-pyrido[3,4-d]pyrimidin-4-yl}-N′,N′-dimethyl-ethane-1,2-diamine]",100 to 1000 nM
4,"CN1CCN(c2cccc(Nc3cc(-c4nc(N5CC(O)C5)c5c(C6CC6)cncc5n4)ccn3)c2)CC1 [Example 777, 1-(5-Cyclopropyl-2-{2-[3-(4-methyl-piperazin-1-yl)-phenylamino]-pyridin-4-yl}-pyrido[3,4-d]pyrimidin-4-yl)-azetidin-3-ol]",100 to 1000 nM
5,"OC1CN(c2nc(-c3ccnc(Nc4cccc(N5CCNCC5)c4)c3)nc3cncc(C4CC4)c23)C1 [Example 778, 1-{5-Cyclopropyl-2-[2-(3-piperazin-1-yl-phenylamino)-pyridin-4-yl]-pyrido[3,4-d]pyrimidin-4-yl}-azetidin-3-ol]",< 100 nM
6,"CC(C)n1ccc(Nc2cc(-c3nc(N4CCNCC4)c4c(C5CC5)cncc4n3)ccn2)n1 [Example 779, [4-(5-Cyclopropyl-4-piperazin-1-yl-pyrido[3,4-d]pyrimidin-2-yl)-pyridin-2-yl]-(1-isopropyl-1H-pyrazol-3-yl)-amine]",< 100 nM
7,"CCn1nc(Nc2cc(-c3nc(N4CCNCC4)c4c(C5CC5)cncc4n3)ccn2)cc1C [Example 780, [4-(5-Cyclopropyl-4-piperazin-1-yl-pyrido[3,4-d]pyrimidin-2-yl)-pyridin-2-yl]-(1-ethyl-5-methyl-1H-pyrazol-3-yl)-amine]",< 100 nM
8,"CN1CCN(c2cccc(Nc3cc(-c4nc(N5CCC[C@@H](O)C5)c5c(C6CC6)cncc5n4)ccn3)n2)CC1 [Example 781, (R)-1-(5-Cyclopropyl-2-{2-[6-(4-methyl-piperazin-1-yl)-pyridin-2-ylamino]-pyridin-4-yl}-pyrido[3,4-d]pyrimidin-4-yl)-piperidin-3-ol]",100 to 1000 nM
9,"Fc1cnc(Nc2cc(-c3nc(N4CCNCC4)c4c(C5CCC5)cncc4n3)ccn2)c(F)c1 [Example 783, [4-(5-Cyclobutyl-4-piperazin-1-yl-pyrido[3,4-d]pyrimidin-2-yl)-pyridin-2-yl]-(3,5-difluoro-pyridin-2-yl)-amine]",< 100 nM
10,"Fc1cccnc1Nc1cc(-c2nc(N3CCNCC3)c3c(C4CCC4)cncc3n2)ccn1 [Example 784, [4-(5-Cyclobutyl-4-piperazin-1-yl-pyrido[3,4-d]pyrimidin-2-yl)-pyridin-2-yl]-(3-fluoro-pyridin-2-yl)-amine]",< 100 nM
11,"Fc1ccnc(Nc2cc(-c3nc(N4CCNCC4)c4c(C5CCC5)cncc4n3)ccn2)c1 [Example 785, [4-(5-Cyclobutyl-4-piperazin-1-yl-pyrido[3,4-d]pyrimidin-2-yl)-pyridin-2-yl]-(4-fluoro-pyridin-2-yl)-amine]",< 100 nM
12,"Fc1cccc(F)c1Nc1cc(-c2nc(C3=CCNCC3)c3c(C4CC4)cncc3n2)ccn1 [Example 789, {4-[5-Cyclopropyl-4-(1,2,3,6-tetrahydro-pyridin-4-yl)-pyrido[3,4-d]pyrimidin-2-yl]-pyridin-2-yl}-(2,6-difluoro-phenyl)-amine]",100 to 1000 nM

# Continued, values first:
row,IC50,SMILES
1,< 100 nM,"Fc1cc(F)c(F)c(Nc2cc(-c3nc(N4CCNCC4)c4c(C5CCC5)cncc4n3)ccn2)n1 [Example 786, [4-(5-Cyclobutyl-4-piperazin-1-yl-pyrido[3,4-d]pyrimidin-2-yl)-pyridin-2-yl]-(3,4,6-trifluoro-pyridin-2-yl)-amine]"
2,< 100 nM,"CC1CN(c2nc(-c3ccnc(Nc4c(F)cccc4F)c3)nc3cncc(C4CC4)c23)CC(C)N1 (stereo not shown) [Example 787, {4-[5-Cyclopropyl-4-(3,5-dimethyl-piperazin-1-yl)-pyrido[3,4-d]pyrimidin-2-yl]-pyridin-2-yl}-(2,6-difluoro-phenyl)-amine]"
3,100 to 1000 nM,"N#C[C@H]1CN(c2nc(-c3ccnc(Nc4c(F)cccc4F)c3)nc3cncc(C4CC4)c23)CCN1 [Example 788, (R)-4-{5-Cyclopropyl-2-[2-(2,6-difluoro-phenylamino)-pyridin-4-yl]-pyrido[3,4-d]pyrimidin-4-yl}-piperazine-2-carbonitrile]"
4,< 100 nM,"Fc1cccc(F)c1Nc1cc(-c2nc(NC3CCNCC3)c3c(C4CC4)cncc3n2)ccn1 [Example 790, {5-Cyclopropyl-2-[2-(2,6-difluoro-phenylamino)-pyridin-4-yl]-pyrido[3,4-d]pyrimidin-4-yl}-piperidin-4-yl-amine]"
5,< 100 nM,"Fc1cccc(F)c1Nc1cc(-c2nc(SC3CCNCC3)c3c(C4CC4)cncc3n2)ccn1 [Example 791, {4-[5-Cyclopropyl-4-(piperidin-4-ylsulfanyl)-pyrido[3,4-d]pyrimidin-2-yl]-pyridin-2-yl}-(2,6-difluoro-phenyl)-amine]"
6,100 to 1000 nM,"CN1CCN(c2cccc(Nc3cc(-c4nc(N5C[C@H](O)[C@@H](O)C5)c5c(C6CC6)cncc5n4)ccn3)c2)CC1 [Example 793, (3S,4S)-1-(5-Cyclopropyl-2-{2-[3-(4-methyl-piperazin-1-yl)-phenylamino]-pyridin-4-yl}-pyrido[3,4-d]pyrimidin-4-yl)-pyrrolidine-3,4-diol]"
7,< 100 nM,"c1cc(-c2nc(N3CCNCC3)c3c(C4CC4)cncc3n2)cc(Nc2cnn(C3CC3)c2)n1 [Example 794, [4-(5-Cyclopropyl-4-piperazin-1-yl-pyrido[3,4-d]pyrimidin-2-yl)-pyridin-2-yl]-(1-cyclopropyl-1H-pyrazol-4-yl)-amine]"
8,< 100 nM,"c1cc(-c2nc(N3CCNCC3)c3c(C4CC4)cncc3n2)cc(Nc2cnn(C3CCOCC3)c2)n1 [Example 795, [4-(5-Cyclopropyl-4-piperazin-1-yl-pyrido[3,4-d]pyrimidin-2-yl)-pyridin-2-yl]-[1-(tetrahydro-pyran-4-yl)-1H-pyrazol-4-yl]-amine]"
9,< 100 nM,"c1cc(-c2nc(N3CCNCC3)c3c(C4CC4)cncc3n2)cc(Nc2cnn(C3CCCC3)c2)n1 [Example 796, (1-Cyclopentyl-1H-pyrazol-4-yl)-[4-(5-cyclopropyl-4-piperazin-1-yl-pyrido[3,4-d]pyrimidin-2-yl)-pyridin-2-yl]-amine]"
10,100 to 1000 nM,"CN(C)CCN(C)c1nc(-c2ccnc(Nc3c(F)cccc3F)c2)nc2cncc(C3CC3)c12 [Example 797, N-{5-Cyclopropyl-2-[2-(2,6-difluoro-phenylamino)-pyridin-4-yl]-pyrido[3,4-d]pyrimidin-4-yl}-N,N′,N′-trimethyl-ethane-1,2-diamine]"
11,< 100 nM,"C[C@H]1CN(c2nc(-c3ccnc(Nc4nc(F)ccc4F)c3)nc3cncc(C4CCC4)c23)CCN1 [Example 798, {4-[5-Cyclobutyl-4-((S)-3-methyl-piperazin-1-yl)-pyrido[3,4-d]pyrimidin-2-yl]-pyridin-2-yl}-(3,6-difluoro-pyridin-2-yl)-amine]"
12,< 100 nM,"Fc1ccc(F)c(Nc2cc(-c3nc(N4CCNCC4)c4c(C5CCC5)cncc4n3)ccn2)n1 [Example 799, [4-(5-Cyclobutyl-4-piperazin-1-yl-pyrido[3,4-d]pyrimidin-2-yl)-pyridin-2-yl]-(3,6-difluoro-pyridin-2-yl)-amine]"
13,< 100 nM,"C[C@H]1CN(c2nc(-c3ccnc(Nc4ncccc4F)c3)nc3cncc(C4CC4)c23)CCN1 [Example 800, {4-[5-Cyclopropyl-4-((S)-3-methyl-piperazin-1-yl)-pyrido[3,4-d]pyrimidin-2-yl]-pyridin-2-yl}-(3-fluoro-pyridin-2-yl)-amine]"
14,< 100 nM,"Fc1ccc(Cl)nc1Nc1cc(-c2nc(N3CCNCC3)c3c(C4CC4)cncc3n2)ccn1 [Example 801, (6-Chloro-3-fluoro-pyridin-2-yl)-[4-(5-cyclopropyl-4-piperazin-1-yl-pyrido[3,4-d]pyrimidin-2-yl)-pyridin-2-yl]-amine]"
15,< 100 nM,"C[C@@H](Nc1cc(-c2nc(N3CCNCC3)c3c(C4CC4)cncc3n2)ccn1)c1nc(F)ccc1F [Example 802, [4-(5-Cyclopropyl-4-piperazin-1-yl-pyrido[3,4-d]pyrimidin-2-yl)-pyridin-2-yl]-[(R)-1-(3,6-difluoro-pyridin-2-yl)-ethyl]-amine]"
16,100 to 1000 nM,"CN(C)CCCCNc1nc(-c2ccnc(Nc3c(F)cccc3F)c2)nc2cncc(C3CC3)c12 [Example 803, N-{5-Cyclopropyl-2-[2-(2,6-difluoro-phenylamino)-pyridin-4-yl]-pyrido[3,4-d]pyrimidin-4-yl}-N′,N′-dimethyl-butane-1,4-diamine]"
